Test results from patent publication EP4653451A1, “POLYPEPTIDE COMPOUND AND USE THEREOF” (Chengdu New Radiomedicine Technology Co., Ltd., priority 2023, dated 2024).
Structures can show the parent of a compound that is named as a salt. Where two headings read alike, the source gives them in different places. Numbered stars: 1 amine (or outer) side, 2 acyl side, 3 side chain; on linkers, the order of the positions; unused ones are H or OH. Bridge positions count the residues as written; N and C are the ends. Square brackets hold non-standard residues; d marks the D form. Peptide text beside a SMILES is read from it. * marks the point of attachment. TBMB(SCH2CH2NH-DOTA) = O=C(O)CN1CCN(CC(=O)O)CCN(CC(=O)NCCSCc2cc(C[*:1])cc(C[*:2])c2)CCN(CC(=O)O)CC1; X4 = CC(=O)NC[C@H](CSCc1cccc(C[*:1])c1)N[*:2]; X6 = NC[C@H](CSCc1cccc(C[*:1])c1)N[*:2]; 1Nal = N[C@@H](Cc1cccc2ccccc12)C(=O)O; d1Nal = N[C@H](Cc1cccc2ccccc12)C(=O)O; mXylylene = c1cc(C[*:1])cc(C[*:2])c1; d(β3hC) = N[C@H](CS)CC(=O)O; β3hC = N[C@@H](CS)CC(=O)O; Hexanoyl = CCCCCC(=O)*; NHBn = c1ccc(CN*)cc1; X3 = C1C2CC1(N*)C2

Legend:
[1] = target: T1, human recombinant FAP protein (Homo sapiens, UniProt Q12884); experiment: Inhibitory activity against FAP protease activity (Z-Gly-Pro-AMC fluorescence); type: biochemical; conditions: for inhibitory activity against FAP protease activity: in words
T1 construct: purchased Acrobiosystems FAP-H82Q6
T1 sequence (Q12884 1-760): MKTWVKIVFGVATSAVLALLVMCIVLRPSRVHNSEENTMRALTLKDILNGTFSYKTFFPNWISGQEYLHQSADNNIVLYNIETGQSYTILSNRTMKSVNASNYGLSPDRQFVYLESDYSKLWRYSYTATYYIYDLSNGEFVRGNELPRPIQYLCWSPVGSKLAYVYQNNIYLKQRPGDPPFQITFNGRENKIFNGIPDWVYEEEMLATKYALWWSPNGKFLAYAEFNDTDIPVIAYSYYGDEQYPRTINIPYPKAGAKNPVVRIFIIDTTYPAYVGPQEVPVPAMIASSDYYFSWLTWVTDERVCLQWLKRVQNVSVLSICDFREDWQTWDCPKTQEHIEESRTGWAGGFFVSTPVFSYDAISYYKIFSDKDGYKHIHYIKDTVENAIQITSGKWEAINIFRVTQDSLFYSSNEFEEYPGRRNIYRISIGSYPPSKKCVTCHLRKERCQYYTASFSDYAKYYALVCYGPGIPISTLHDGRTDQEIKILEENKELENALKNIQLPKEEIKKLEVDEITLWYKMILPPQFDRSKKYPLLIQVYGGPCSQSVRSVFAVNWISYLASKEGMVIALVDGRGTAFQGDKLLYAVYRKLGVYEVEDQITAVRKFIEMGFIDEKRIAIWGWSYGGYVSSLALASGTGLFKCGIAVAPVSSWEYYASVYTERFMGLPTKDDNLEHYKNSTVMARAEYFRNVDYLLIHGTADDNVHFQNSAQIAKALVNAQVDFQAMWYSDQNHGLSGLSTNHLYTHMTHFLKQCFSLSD
Description: The human recombinant FAP protein (Acrobiosystems, FAP-H82Q6) was diluted to a 125 pM FAP working solution with an assay buffer (50 mM Tris-HCl, 1 M NaCl, 1 mg/mL BSA, pH 7.5), and the FAP substrate (Z-Gly-Pro-AMC (LEONBIO, 68542-93-8)) was diluted to a 150 µM substrate working solution with the assay buffer. 40 µl of FAP working solution and 20 µl of compounds at different concentrations (4-fold dilution) were taken, then 40 µl of substrate working solution was added, and the mixture was uniformly mixed on a shaker at room temperature for 1 min. The uniformly mixed mixture was reacted at room temperature in the dark for 90 min. The fluorescence value Ex = 380 nm/Em = 460 nm was read by using a microplate reader. The original data was saved, and the IC50 value of the compound was obtained by using the original data or the Inhibition% via calculation and analyzing the data with Graphpad PRISM.

[2] = target: T2, human recombinant DPP4 protein (Homo sapiens, UniProt P27487); experiment: Inhibitory activity against DPP4 protease activity (H-Gly-Pro-AMC fluorescence); type: biochemical; conditions: 125 pM DPP4 working solution, 90 min at room temperature
T2 construct: purchased Acrobiosystems DP4-H5211
T2 sequence (P27487 whole entry): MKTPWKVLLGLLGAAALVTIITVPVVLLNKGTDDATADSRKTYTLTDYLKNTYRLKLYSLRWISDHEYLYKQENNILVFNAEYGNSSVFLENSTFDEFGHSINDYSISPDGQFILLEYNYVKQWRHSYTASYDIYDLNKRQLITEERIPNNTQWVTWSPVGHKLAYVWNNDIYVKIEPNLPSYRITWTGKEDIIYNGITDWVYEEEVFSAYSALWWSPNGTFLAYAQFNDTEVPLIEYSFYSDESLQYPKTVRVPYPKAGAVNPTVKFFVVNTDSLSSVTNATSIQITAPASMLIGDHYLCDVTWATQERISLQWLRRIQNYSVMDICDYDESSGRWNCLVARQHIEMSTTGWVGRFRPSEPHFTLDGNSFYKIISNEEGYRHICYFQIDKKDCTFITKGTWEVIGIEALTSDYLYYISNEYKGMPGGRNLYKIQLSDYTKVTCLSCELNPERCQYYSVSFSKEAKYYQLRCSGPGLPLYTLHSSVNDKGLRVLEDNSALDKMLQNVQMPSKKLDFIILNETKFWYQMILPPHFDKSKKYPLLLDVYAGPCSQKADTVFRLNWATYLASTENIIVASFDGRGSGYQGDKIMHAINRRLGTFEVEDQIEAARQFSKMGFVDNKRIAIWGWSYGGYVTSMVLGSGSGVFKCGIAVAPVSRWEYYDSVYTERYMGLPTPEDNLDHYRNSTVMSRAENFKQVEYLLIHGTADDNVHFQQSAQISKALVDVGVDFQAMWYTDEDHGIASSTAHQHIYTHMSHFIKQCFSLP
Description: The human recombinant DPP4 protein (Acrobiosystems, DP4-H5211) was formulated into a 125 pM working solution with an assay buffer (20 mM Tris-HCl, 100 mM NaCl), and the DPP4 substrate (H-Gly-Pro-AMC.HBr (LEONBIO, 115035-46-6)) was diluted to a 250 µM DPP4 substrate working solution with the assay buffer. 40 µl of DPP4 working solution and 20 µl of compounds at different concentrations (4-fold dilution) were taken, then 40 µl of DPP4 substrate working solution was added, and the mixture was uniformly mixed on a shaker at room temperature for 1 min. The uniformly mixed mixture was reacted at room temperature in the dark for 90 min. Reading was made by microplate reader at excitation and emission wavelengths of 380 nm and 460 nm. The original data was saved, and the IC50 value of the compound was obtained by analyzing the data with Graphpad PRISM.

[3] = 125 pM FAP working solution, 90 min at room temperature, read-out: FAP IC50

## CCCCCC(=O)N[C@H]1CSCc2cc(CSCCNC(=O)CN3CCN(CC(=O)O)CCN(CC(=O)O)CCN(CC(=O)O)CC3)cc(c2)CSC[C@@H](CNC(=O)CCc2ccc(C(F)(F)F)cc2)NC(=O)[C@H](Cc2cccc3ccccc23)NC(=O)[C@H](CCC(N)=O)NC(=O)[C@H]([C@@H](C)O)NC(=O)[C@@H]2CCCN2C(=O)[C@@H]2CCCN2C1=O [Compound 19, Hex-Cys-Pro-Pro-Thr-Gln-1Nal-Cys-CH2NH-3-(4-trifluoromethylphenyl)propanoic acid (Cys bridge TBMB (DOTA-AET))]
[1]; [3]
  IC50: 0.98 nM
[2]
  IC50: > 10000 nM

## CCCCCC(=O)N[C@H]1CSCc2cccc(c2)CSC[C@@H](CC(=O)NC23CC(C2)C3)NC(=O)[C@H](Cc2cccc3ccccc23)NC(=O)[C@H](CCC(N)=O)NC(=O)[C@H]([C@@H](C)O)NC(=O)[C@@H]2CCCN2C(=O)[C@@H]2CCCN2C1=O [Compound 38] (Hexanoyl-CPPTQ[1Nal][β3hC]-X3; linker 1-7 via mXylylene)
[1]; [3]
  IC50: 4.12 nM
[2]
  IC50: > 10000 nM

## CCCCCC(=O)N[C@H]1CSCc2cccc(c2)CSC[C@@H](CC(=O)NCc2ccccc2)NC(=O)[C@H](Cc2cccc3ccccc23)NC(=O)[C@H](CCC(N)=O)NC(=O)[C@H]([C@@H](C)O)NC(=O)[C@@H]2CCCN2C(=O)[C@@H]2CCCN2C1=O [Compound 33] (Hexanoyl-CPPTQ[1Nal][β3hC]-NHBn; linker 1-7 via mXylylene)
[1]; [3]
  IC50: 2.9 nM
[2]
  IC50: > 10000 nM

## CCCCCC(=O)N[C@H]1CSCc2cccc(c2)CSC[C@@H](CC(=O)N[C@@H](CC(=O)O)C(N)=O)NC(=O)[C@H](Cc2ccccc2)NC(=O)[C@H](CCC(N)=O)NC(=O)[C@H]([C@@H](C)O)NC(=O)[C@@H]2CCCN2C(=O)[C@@H]2CCCN2C1=O [Compound 1, Hex-Cys-Pro-Pro-Thr-Gln-Phe-beta-HomoCys-Asp-NH2 (Cys bridge DBMB) trifluoroacetate] (Hexanoyl-CPPTQF[β3hC]D-NH2; linker 1-7 via mXylylene)
[1]
  IC50: 2.91 nM
[2]
  IC50: > 10000 nM

## CCCCCC(=O)N[C@H]1CSCc2cc(CSCCNC(=O)CN3CCN(CC(=O)O)CCN(CC(=O)O)CCN(CC(=O)O)CC3)cc(c2)CSC[C@H](CC(=O)O)NC(=O)[C@H](Cc2cccc3ccccc23)NC(=O)[C@H](CCC(N)=O)NC(=O)[C@H]([C@@H](C)O)NC(=O)[C@@H]2CCCN2C(=O)[C@@H]2CCCN2C1=O [Compound 84, Hexanoyl-(Cys(tMeBn(DOTA-AET))-Pro-Pro-Thr-Gln-1Nal-D-betahomoCys)-OH] (Hexanoyl-CPPTQ[1Nal][d(β3hC)]-OH; linker 1-7 via TBMB(SCH2CH2NH-DOTA))
[1]; [3]
  IC50: 6.7 nM
[1]
  inhibitory activity against FAP protease activity: good inhibitory activity

## CCCCCC(=O)N[C@H]1CSCc2cccc(c2)CSC[C@@H](CNC(C)=O)NC(=O)[C@H](Cc2ccccc2)NC(=O)[C@H](CCC(N)=O)NC(=O)[C@H]([C@@H](C)O)NC(=O)[C@@H]2CCCN2C(=O)[C@@H]2CCCN2C1=O [Compound 5, Hex-Cys-Pro-Pro-Thr-Gln-Phe-Cys-CH2NHAc (Cys bridge DBMB) trifluoroacetate] (Hexanoyl-CPPTQF; linker 1-C via X4)
[1]
  IC50: 1.8 nM
[2]
  IC50: > 10000 nM

## CCCCCC(=O)N[C@H]1CSCc2cc(CSCCNC(=O)CN3CCN(CC(=O)O)CCN(CC(=O)O)CCN(CC(=O)O)CC3)cc(c2)CSC[C@@H](CC(=O)O)NC(=O)[C@H](Cc2cccc3ccccc23)NC(=O)[C@H](CCC(N)=O)NC(=O)[C@@H]([C@H](C)O)NC(=O)[C@@H]2CCCN2C(=O)[C@@H]2CCCN2C1=O [Compound 81, Hexanoyl-(Cys(tMeBn(DOTA-AET))-Pro-Pro-D-Thr-Gln-1Nal-betahomoCys)-OH] (Hexanoyl-CPP[dT]Q[1Nal][β3hC]-OH; linker 1-7 via TBMB(SCH2CH2NH-DOTA))
[1]; [3]
  IC50: 70.6 nM
[1]
  inhibitory activity against FAP protease activity: good inhibitory activity

## CCCCCC(=O)N[C@H]1CSCc2cccc(c2)CSC[C@@H](CN)NC(=O)[C@H](Cc2ccccc2)NC(=O)[C@H](CCC(N)=O)NC(=O)[C@H]([C@@H](C)O)NC(=O)[C@@H]2CCCN2C(=O)[C@@H]2CCCN2C1=O [Compound 4, Hex-Cys-Pro-Pro-Thr-Gln-Phe-Cys-CH2NH2 (Cys bridge DBMB) trifluoroacetate] (Hexanoyl-CPPTQF; linker 1-C via X6)
[1]
  IC50: 11.3 nM

## CCCCCC(=O)N[C@@H]1CSCc2cc(CSCCNC(=O)CN3CCN(CC(=O)O)CCN(CC(=O)O)CCN(CC(=O)O)CC3)cc(c2)CSC[C@@H](CC(=O)O)NC(=O)[C@H](Cc2cccc3ccccc23)NC(=O)[C@H](CCC(N)=O)NC(=O)[C@H]([C@@H](C)O)NC(=O)[C@@H]2CCCN2C(=O)[C@@H]2CCCN2C1=O [Compound 78, Hexanoyl-(D-Cys(tMeBn(DOTA-AET))-Pro-Pro-Thr-Gln-1Nal-betahomoCys)-OH] (Hexanoyl-[dC]PPTQ[1Nal][β3hC]-OH; linker 1-7 via TBMB(SCH2CH2NH-DOTA))
[1]; [3]
  IC50: 14.7 nM
[1]
  inhibitory activity against FAP protease activity: good inhibitory activity

## CCCCCC(=O)N[C@H]1CSCc2cc(CSCCNC(=O)CN3CCN(CC(=O)O)CCN(CC(=O)O)CCN(CC(=O)O)CC3)cc(c2)CSC[C@@H](CC(=O)O)NC(=O)[C@H](Cc2cccc3ccccc23)NC(=O)[C@H](CCC(N)=O)NC(=O)[C@H]([C@@H](C)O)NC(=O)[C@H]2CCCN2C(=O)[C@@H]2CCCN2C1=O [Compound 80, Hexanoyl-(Cys(tMeBn(DOTA-AET))-Pro-D-Pro-Thr-Gln-1Nal-betahomoCys)-OH] (Hexanoyl-CP[dP]TQ[1Nal][β3hC]-OH; linker 1-7 via TBMB(SCH2CH2NH-DOTA))
[1]; [3]
  IC50: 566 nM

## CCCCCC(=O)N[C@H]1CSCc2cc(CSCCNC(=O)CN3CCN(CC(=O)O)CCN(CC(=O)O)CCN(CC(=O)O)CC3)cc(c2)CSC[C@@H](CC(=O)O)NC(=O)[C@@H](Cc2cccc3ccccc23)NC(=O)[C@H](CCC(N)=O)NC(=O)[C@H]([C@@H](C)O)NC(=O)[C@@H]2CCCN2C(=O)[C@@H]2CCCN2C1=O [Compound 83, Hexanoyl-(Cys(tMeBn(DOTA-AET))-Pro-Pro-Thr-Gln-D-1Nal-betahomoCys)-OH] (Hexanoyl-CPPTQ[d1Nal][β3hC]-OH; linker 1-7 via TBMB(SCH2CH2NH-DOTA))
[1]; [3]
  IC50: 1040 nM

## CCCCCC(=O)N[C@H]1CSCc2cc(CSCCNC(=O)CN3CCN(CC(=O)O)CCN(CC(=O)O)CCN(CC(=O)O)CC3)cc(c2)CSC[C@@H](CC(=O)O)NC(=O)[C@H](Cc2cccc3ccccc23)NC(=O)[C@@H](CCC(N)=O)NC(=O)[C@H]([C@@H](C)O)NC(=O)[C@@H]2CCCN2C(=O)[C@@H]2CCCN2C1=O [Compound 82, Hexanoyl-(Cys(tMeBn(DOTA-AET))-Pro-Pro-Thr-D-Gln-1Nal-betahomoCys)-OH] (Hexanoyl-CPPT[dQ][1Nal][β3hC]-OH; linker 1-7 via TBMB(SCH2CH2NH-DOTA))
[1]; [3]
  IC50: 209 nM

## CCCCCC(=O)N[C@H]1CSCc2cc(CSCCNC(=O)CN3CCN(CC(=O)O)CCN(CC(=O)O)CCN(CC(=O)O)CC3)cc(c2)CSC[C@@H](CC(=O)O)NC(=O)[C@H](Cc2cccc3ccccc23)NC(=O)[C@H](CCC(N)=O)NC(=O)[C@H]([C@@H](C)O)NC(=O)[C@@H]2CCCN2C(=O)[C@H]2CCCN2C1=O [Compound 79, Hexanoyl-(Cys(tMeBn(DOTA-AET))-D-Pro-Pro-Thr-Gln-1Nal-betahomoCys)-OH] (Hexanoyl-C[dP]PTQ[1Nal][β3hC]-OH; linker 1-7 via TBMB(SCH2CH2NH-DOTA))
[1]; [3]
  IC50: > 5000 nM
